Data: PMC5515969, “Effects of 31 FDA approved small-molecule kinase inhibitors on isolated rat liver mitochondria” (Archives of Toxicology, 2016)
Where two headings read alike, the source gives them in different places.

What was measured:
RCC V = RCC V activity in submitochondrial particles; assay type: biochemical, rat; on RCC V at 5XCmax: key: 0 indicates that the drug had no effects (negative)
Procedure, shortened: (§1)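 First, submitochondrial particles (1 mg/ml) are incubated with inhibitor for 15 min. Next, complex activities are followed spectrophotometrically, with RCC I taken as the difference between buffers lacking and containing rotenone. Finally, activities are expressed relative to DMSO controls set at 1.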

RCC I = RCC I activity in submitochondrial particles; assay type: biochemical, rat; design: key to RCC I at 10XCmax / RCC I at 100XCmax / RCC I at 50XCmax / RCC I at 30XCmax / RCC I at 20XCmax: activity relative to DMSO-treated controls (control set as 1 = 100%); conditions: 10XCmax
Procedure, shortened: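 Activity relative to DMSO (set as 1) after 15-min exposure of submitochondrial particles (1 mg/ml) to compound. RCC I is defined as rotenone-sensitive activity and RCC II is followed at 600 nm over 6 min.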

[1] = test system: isolated rat liver mitochondria; experiment: Mitochondrial swelling (absorbance at 535 nm); assay type: biochemical; conditions: difference in signal between KI and DMSO treated samples at the end of experiments; on Swelling 5XCmax: key: 0 indicates that the drug had no effects (negative)
[2] = test system: isolated rat liver mitochondria; experiment: Mitochondrial ROS production (CM-H2DCFDA); conditions: DMSO treated samples set as 1
RCC II = target: T1, RCC II (Rattus norvegicus, UniProt P21913+Q641Z9+Q6PCT8+Q920L2); experiment: RCC II activity in submitochondrial particles; assay type: biochemical; design: key: activity relative to DMSO-treated controls (control set as 1 = 100%)
T1 construct: Submitochondrial particles were prepared by subjecting the intact mitochondria to three successive freeze–thaw cycles; from tissue; host or cells: rat liver mitochondria, used as submitochondrial particles
Procedure, shortened: as §1

[3] = cited from earlier work
[4] = test system: isolated rat liver mitochondria; experiment: Mitochondrial oxygen consumption (glutamate/malate or succinate driven, state 4 and state 3); assay type: biochemical; conditions: for Glutamate/malate driven respiration State 3 / Glutamate/malate driven respiration State 4 / Succinate-driven respiration State 3 / Succinate-driven respiration State 4: oxygen consumption, DMSO-treated = 1; on State 3 respiration driven by succinate at 10XCmax: key: 0 indicates that the drug had no effects (negative); on State 3 respiration driven by succinate at 1XCmax: key: 0 indicates that the drug had no effects (negative)
Procedure, shortened: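 Rat liver mitochondria (1 mg/ml protein) exposed 5 min to kinase inhibitors in 0.1% DMSO, then O2 consumption measured by Clark-type electrode with glutamate/malate or succinate (state 4), ADP added after 3 min (state 3). Rates normalized to 0.1% DMSO controls set to 1.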

[5] = test system: isolated rat liver mitochondria; conditions: positive control alamethicin treated samples
RCC III = RCC III activity in submitochondrial particles; assay type: biochemical, rat; design: key to RCC III at 100XCmax: activity relative to DMSO-treated controls (control set as 1 = 100%); conditions: 100XCmax
Procedure, shortened: as §1

[6] = cited from earlier work; remark: listed apart in the source
[7] = 50XCmax, DMSO treated samples set as 1
[8] = human therapeutic Cmax at FDA recommended dosages, ref product labeling and drug approval packages at the official FDA website
[9] = 1XCmax, DMSO treated samples set as 1
[10] = 2.5XCmax, DMSO treated samples set as 1
[11] = 5XCmax, DMSO treated samples set as 1
[12] = 10XCmax, DMSO treated samples set as 1
[13] = 20XCmax, DMSO treated samples set as 1
[14] = 30XCmax, DMSO treated samples set as 1
[15] = 100XCmax, DMSO treated samples set as 1
[16] = relative to DMSO treated samples

T1 sequence (Q920L2 35-656): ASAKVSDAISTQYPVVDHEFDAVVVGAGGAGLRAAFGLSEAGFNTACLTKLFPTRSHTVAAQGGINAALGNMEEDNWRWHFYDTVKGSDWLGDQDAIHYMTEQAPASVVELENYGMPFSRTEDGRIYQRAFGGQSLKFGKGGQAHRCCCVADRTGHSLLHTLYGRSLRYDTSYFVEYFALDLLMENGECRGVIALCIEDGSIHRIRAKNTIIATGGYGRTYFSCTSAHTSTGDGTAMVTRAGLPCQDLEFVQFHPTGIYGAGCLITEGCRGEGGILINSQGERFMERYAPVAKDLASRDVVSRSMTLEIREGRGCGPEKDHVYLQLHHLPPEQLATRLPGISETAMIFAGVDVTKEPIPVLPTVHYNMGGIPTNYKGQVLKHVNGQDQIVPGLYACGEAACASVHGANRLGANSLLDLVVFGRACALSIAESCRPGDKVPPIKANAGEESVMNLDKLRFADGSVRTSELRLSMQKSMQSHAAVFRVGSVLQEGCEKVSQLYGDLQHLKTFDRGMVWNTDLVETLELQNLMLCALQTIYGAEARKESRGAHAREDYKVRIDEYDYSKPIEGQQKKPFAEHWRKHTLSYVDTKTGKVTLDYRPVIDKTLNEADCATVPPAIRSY
T1 sequence (P21913 31-282): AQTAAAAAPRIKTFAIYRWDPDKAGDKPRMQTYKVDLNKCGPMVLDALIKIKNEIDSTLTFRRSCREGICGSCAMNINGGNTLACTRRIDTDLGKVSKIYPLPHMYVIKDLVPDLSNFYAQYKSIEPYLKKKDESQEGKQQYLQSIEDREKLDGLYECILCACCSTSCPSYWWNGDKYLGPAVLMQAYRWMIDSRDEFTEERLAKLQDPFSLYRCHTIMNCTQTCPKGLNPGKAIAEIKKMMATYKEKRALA
T1 sequence (Q641Z9 1-169): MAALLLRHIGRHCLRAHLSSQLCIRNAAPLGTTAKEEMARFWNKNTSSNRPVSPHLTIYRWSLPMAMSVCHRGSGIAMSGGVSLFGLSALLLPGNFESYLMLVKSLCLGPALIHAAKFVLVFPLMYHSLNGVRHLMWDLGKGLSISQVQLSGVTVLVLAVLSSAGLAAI
T1 sequence (Q6PCT8 57-159): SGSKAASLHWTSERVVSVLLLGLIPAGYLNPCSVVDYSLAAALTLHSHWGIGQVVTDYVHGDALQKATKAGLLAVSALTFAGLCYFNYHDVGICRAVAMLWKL

CC[C@H](Nc1ncnc2[nH]cnc12)c1nc2cccc(F)c2c(=O)n1-c1ccccc1 [Idelalisib]
0.65±0.03: State 3 respiration driven by succinate at 100XCmax [4, 15]
0.83 ± 0.06: Succinate-driven respiration State 3 ([4]; 50-fold Cmax)
0: RCC V at 5XCmax (RCC V; DMSO treated samples set as 1) | RCC V at 50XCmax (RCC V; [7]) | RCC I at 10XCmax (RCC I; DMSO treated samples set as 1) | Swelling 1XCmax [1] | Swelling 2.5XCmax [1] | Swelling 5XCmax [1] | Swelling 10XCmax [1] | Swelling 20XCmax [1] | Swelling 30XCmax [1] | Swelling 50XCmax [1] | Swelling 100XCmax [1] | ROS measured by CM-H2DCFDA at 1XCmax [2] | ROS measured by CM-H2DCFDA at 2.5XCmax [2] | ROS measured by CM-H2DCFDA at 5XCmax [2] | ROS measured by CM-H2DCFDA at 10XCmax [2] | ROS measured by CM-H2DCFDA at 20XCmax [2] | ROS measured by CM-H2DCFDA at 30XCmax [2] | ROS measured by CM-H2DCFDA at 50XCmax [2] | ROS measured by CM-H2DCFDA at 100XCmax [2] | RCC II at 1.0XCmax (RCC II; DMSO treated samples set as 1) | RCC II at 2.5XCmax (RCC II; DMSO treated samples set as 1) | RCC II at 5XCmax (RCC II; DMSO treated samples set as 1) | RCC II at 10XCmax (RCC II; DMSO treated samples set as 1) | RCC II at 20XCmax (RCC II; DMSO treated samples set as 1) | RCC II at 30XCmax (RCC II; DMSO treated samples set as 1) | RCC II at 50XCmax (RCC II; DMSO treated samples set as 1) | RCC II at 100XCmax (RCC II; DMSO treated samples set as 1) | State 3 respiration driven by succinate at 1XCmax [4, 9] | State 4 respiration driven by succinate at 1XCmax [4, 9] | State 3 respiration driven by succinate at 2.5XCmax [4, 10] | State 4 respiration driven by succinate at 2.5XCmax [4, 10] | State 3 respiration driven by succinate at 5XCmax [4, 11] | State 4 respiration driven by succinate at 5XCmax [4, 11] | State 3 respiration driven by succinate at 10XCmax [4, 12] | State 4 respiration driven by succinate at 10XCmax [4, 12] | State 3 respiration driven by succinate at 20XCmax [4, 13] | State 4 respiration driven by succinate at 20XCmax [4, 13] | State 3 respiration driven by succinate at 30XCmax [4, 14] | State 4 respiration driven by succinate at 30XCmax [4, 14] | State 3 respiration driven by succinate at 50XCmax [4, 7] | State 4 respiration driven by succinate at 50XCmax [4, 7] | State 4 respiration driven by succinate at 100XCmax [4, 15] | Cytochrome c release 1XCmax [5] | Cytochrome c release 2.5XCmax [5] | Cytochrome c release 5XCmax [5] | Cytochrome c release 10XCmax [5] | Cytochrome c release 20XCmax [5] | Cytochrome c release 30XCmax [5] | Cytochrome c release 50XCmax [5] | Cytochrome c release 100XCmax [5] | RCC III at 100XCmax (RCC III)
0.66±0.03: State 3 respiration driven by glutamate/malate at 100XCmax [4, 15]
0.66 ± 0.03: Glutamate/malate driven respiration State 3 ([4]; 100-fold Cmax)
0.76 ± 0.04: Glutamate/malate driven respiration State 3 ([4]; 50-fold Cmax)
1.05 ± 0.01: Succinate-driven respiration State 4 ([4]; 100-fold Cmax)
1.927 µg/mL: Cmax (ng or µg/ml) ([3]; human therapeutic maximal blood concentration, ref product labeling)
1.00 ± 0.08: Glutamate/malate driven respiration State 4 ([4]; 50-fold Cmax)
0.76±0.04: State 3 respiration driven by glutamate/malate at 50XCmax [4, 7]
1.13 ± 0.05: Glutamate/malate driven respiration State 4 ([4]; 100-fold Cmax)
50 fold Cmax: lowest concentration significantly affecting mitochondrial oxygen consumption ([4]; tested at 1 to 100-fold Cmax)
4.64 µM: Cmax [3, 8] | Cmax ([3]; read-out: Cmax at µM, human therapeutic maximal blood concentration, ref product labeling)
0.65 ± 0.03: Succinate-driven respiration State 3 ([4]; 100-fold Cmax)
0.97 ± 0.04: Succinate-driven respiration State 4 ([4]; 50-fold Cmax)

CCCS(=O)(=O)Nc1ccc(F)c(C(=O)c2c[nH]c3ncc(-c4ccc(Cl)cc4)cc23)c1F [Vemurafenib]
W&P: functional hepatic impairment: Labeling for DILI ([6]; BBW: black box warning, W&P: Warnings and Precautions, ref product labeling)
1: DILI potential (based on labeling) ([6]; 1 = DILI positive, 0 = negative, ref product labeling) | DILI potential (based on labeling) ([6]; ref FDA product labeling)
W&P: hepatic impairment/ALT monitoring: labeling for DILI ([6]; W&P warnings and precautions, BBW black box warnings, ref FDA product labeling)
0: RCC V at 5XCmax (RCC V; [16]) | RCC I at 10XCmax (RCC I; [16]) | Swelling 1XCmax [1] | Swelling 2.5XCmax [1] | Swelling 5XCmax [1] | Swelling 10XCmax [1] | Swelling 20XCmax [1] | Swelling 30XCmax [1] | Swelling 50XCmax [1] | Swelling 100XCmax [1] | ROS measured by CM-H2DCFDA at 1XCmax [2] | ROS measured by CM-H2DCFDA at 2.5XCmax [2] | ROS measured by CM-H2DCFDA at 5XCmax [2] | ROS measured by CM-H2DCFDA at 10XCmax [2] | ROS measured by CM-H2DCFDA at 20XCmax [2] | ROS measured by CM-H2DCFDA at 30XCmax [2] | ROS measured by CM-H2DCFDA at 50XCmax [2] | ROS measured by CM-H2DCFDA at 100XCmax [2] | RCC II at 1.0XCmax (RCC II; [16]) | RCC II at 2.5XCmax (RCC II; [16]) | RCC II at 5XCmax (RCC II; [16]) | RCC II at 10XCmax (RCC II; [16]) | RCC II at 20XCmax (RCC II; [16]) | RCC II at 30XCmax (RCC II; [16]) | RCC II at 50XCmax (RCC II; [16]) | RCC II at 100XCmax (RCC II; [16]) | State 3 respiration driven by glutamate/malate at 1XCmax [4, 9] | State 3 respiration driven by succinate at 1XCmax [4, 9] | State 4 respiration driven by glutamate/malate at 1XCmax [4, 9] | State 4 respiration driven by succinate at 1XCmax [4, 9] | State 3 respiration driven by glutamate/malate at 2.5XCmax [4, 10] | State 3 respiration driven by succinate at 2.5XCmax [4, 10] | State 4 respiration driven by glutamate/malate at 2.5XCmax [4, 10] | State 4 respiration driven by succinate at 2.5XCmax [4, 10] | State 3 respiration driven by glutamate/malate at 5XCmax [4, 11] | State 3 respiration driven by succinate at 5XCmax [4, 11] | State 4 respiration driven by glutamate/malate at 5XCmax [4, 11] | State 4 respiration driven by succinate at 5XCmax [4, 11] | State 3 respiration driven by glutamate/malate at 10XCmax [4, 12] | State 3 respiration driven by succinate at 10XCmax [4, 12] | State 4 respiration driven by glutamate/malate at 10XCmax [4, 12] | State 4 respiration driven by succinate at 10XCmax [4, 12] | State 3 respiration driven by glutamate/malate at 20XCmax [4, 13] | State 3 respiration driven by succinate at 20XCmax [4, 13] | State 4 respiration driven by glutamate/malate at 20XCmax [4, 13] | State 4 respiration driven by succinate at 20XCmax [4, 13] | State 3 respiration driven by glutamate/malate at 30XCmax [4, 14] | State 3 respiration driven by succinate at 30XCmax [4, 14] | State 4 respiration driven by glutamate/malate at 30XCmax [4, 14] | State 4 respiration driven by succinate at 30XCmax [4, 14] | State 3 respiration driven by glutamate/malate at 50XCmax [4, 7] | State 3 respiration driven by succinate at 50XCmax [4, 7] | State 4 respiration driven by glutamate/malate at 50XCmax [4, 7] | State 4 respiration driven by succinate at 50XCmax [4, 7] | State 3 respiration driven by glutamate/malate at 100XCmax [4, 15] | State 3 respiration driven by succinate at 100XCmax [4, 15] | State 4 respiration driven by glutamate/malate at 100XCmax [4, 15] | State 4 respiration driven by succinate at 100XCmax [4, 15] | Cytochrome c release 1XCmax [5] | Cytochrome c release 2.5XCmax [5] | Cytochrome c release 5XCmax [5] | Cytochrome c release 10XCmax [5] | Cytochrome c release 20XCmax [5] | Cytochrome c release 30XCmax [5] | Cytochrome c release 50XCmax [5] | Cytochrome c release 100XCmax [5]
0.13 µM: Cmax [3, 8]
